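Grown in 96-well plates, cells were treated for 48 hours with each compound at five concentrations. Insufficient inhibition: endpoint recorded as highest concentration tested. TGI marks complete inhibition of growth.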
How the values were obtained:
Assay in all cases: NCI tumour cell line growth inhibition, 48 h
HCT-116 colon = tested on: HCT-116 colon
K-562 leukemia = tested on: K-562 leukemia
IGROV1 ovarian = tested on: IGROV1 ovarian
SW-620 colon = tested on: SW-620 colon
HOP-92 NSCLC = tested on: HOP-92 NSCLC
HL-60(TB) leukemia = tested on: HL-60(TB) leukemia
PC-3 prostate = tested on: PC-3 prostate
SF-295 CNS = tested on: SF-295 CNS
RPMI-8226 leukemia = tested on: RPMI-8226 leukemia
MDA-N = tested on: MDA-N
SK-OV-3 ovarian = tested on: SK-OV-3 ovarian
SNB-75 CNS = tested on: SNB-75 CNS
HOP-62 NSCLC = tested on: HOP-62 NSCLC
NCI-H23 lung = tested on: NCI-H23 lung
SK-MEL-5 melanoma = tested on: SK-MEL-5 melanoma
HCT-15 colon = tested on: HCT-15 colon
CAKI-1 renal = tested on: CAKI-1 renal
UACC-62 melanoma = tested on: UACC-62 melanoma
KM12 colon = tested on: KM12 colon
NCI-H226 lung = tested on: NCI-H226 lung
U251 CNS = tested on: U251 CNS
SNB-19 CNS = tested on: SNB-19 CNS
M14 melanoma = tested on: M14 melanoma
SK-MEL-2 melanoma = tested on: SK-MEL-2 melanoma
HT29 colon = tested on: HT29 colon
SF-539 CNS = tested on: SF-539 CNS
MDA-MB-435 = tested on: MDA-MB-435
A498 renal = tested on: A498 renal
OVCAR-4 ovarian = tested on: OVCAR-4 ovarian
NCI-H522 lung = tested on: NCI-H522 lung
UO-31 renal = tested on: UO-31 renal
SK-MEL-28 melanoma = tested on: SK-MEL-28 melanoma
HCC-2998 colon = tested on: HCC-2998 colon
SF-268 CNS = tested on: SF-268 CNS
BT-549 breast = tested on: BT-549 breast
T-47D breast = tested on: T-47D breast
MALME-3M melanoma = tested on: MALME-3M melanoma
HS 578T breast = tested on: HS 578T breast
COLO 205 colon = tested on: COLO 205 colon
SN12C renal = tested on: SN12C renal
NCI-H460 lung = tested on: NCI-H460 lung
DU-145 prostate = tested on: DU-145 prostate
LOX IMVI melanoma = tested on: LOX IMVI melanoma
OVCAR-8 ovarian = tested on: OVCAR-8 ovarian
TK-10 renal = tested on: TK-10 renal
UACC-257 melanoma = tested on: UACC-257 melanoma
A549 NSCLC = tested on: A549 NSCLC
MCF7 breast = tested on: MCF7 breast
EKVX NSCLC = tested on: EKVX NSCLC
ACHN renal = tested on: ACHN renal
NCI/ADR-RES ovarian = tested on: NCI/ADR-RES ovarian
OVCAR-5 ovarian = tested on: OVCAR-5 ovarian
SR leukemia = tested on: SR leukemia
MDA-MB-231 breast = tested on: MDA-MB-231 breast
RXF 393 renal = tested on: RXF 393 renal
MOLT-4 leukemia = tested on: MOLT-4 leukemia
786-0 renal = tested on: 786-0 renal
CCRF-CEM leukemia = tested on: CCRF-CEM leukemia
OVCAR-3 ovarian = tested on: OVCAR-3 ovarian

## CCN(CC)C(=S)SNc1ccc(S(N)(=O)=O)cc1
HCT-116 colon
  TGI: > 100 µM
K-562 leukemia
  TGI: > 100 µM
IGROV1 ovarian
  TGI: > 100 µM
SW-620 colon
  TGI: 19.3 µM
HOP-92 NSCLC
  TGI: > 100 µM
HL-60(TB) leukemia
  TGI: > 100 µM
PC-3 prostate
  TGI: > 100 µM
SF-295 CNS
  TGI: > 100 µM
RPMI-8226 leukemia
  TGI: > 78.9 µM
MDA-N
  TGI: > 100 µM
SK-OV-3 ovarian
  TGI: > 100 µM
SNB-75 CNS
  TGI: > 100 µM
HOP-62 NSCLC
  TGI: > 100 µM
NCI-H23 lung
  TGI: > 100 µM
SK-MEL-5 melanoma
  TGI: > 100 µM
HCT-15 colon
  TGI: > 100 µM
CAKI-1 renal
  TGI: > 90.6 µM
UACC-62 melanoma
  TGI: > 100 µM
KM12 colon
  TGI: > 100 µM
NCI-H226 lung
  TGI: > 100 µM
U251 CNS
  TGI: > 100 µM
SNB-19 CNS
  TGI: > 100 µM
M14 melanoma
  TGI: > 67.7 µM
SK-MEL-2 melanoma
  TGI: > 100 µM
HT29 colon
  TGI: > 54.6 µM
SF-539 CNS
  TGI: > 100 µM
MDA-MB-435
  TGI: > 100 µM
A498 renal
  TGI: > 100 µM
OVCAR-4 ovarian
  TGI: > 100 µM
NCI-H522 lung
  TGI: 29.5 µM
UO-31 renal
  TGI: > 100 µM
SK-MEL-28 melanoma
  TGI: > 100 µM
HCC-2998 colon
  TGI: > 100 µM
SF-268 CNS
  TGI: > 100 µM
BT-549 breast
  TGI: > 100 µM
T-47D breast
  TGI: > 100 µM
MALME-3M melanoma
  TGI: 97.3 µM
HS 578T breast
  TGI: > 100 µM
COLO 205 colon
  TGI: > 100 µM
SN12C renal
  TGI: > 100 µM
NCI-H460 lung
  TGI: > 100 µM
DU-145 prostate
  TGI: > 100 µM
LOX IMVI melanoma
  TGI: > 100 µM
OVCAR-8 ovarian
  TGI: 66 µM
TK-10 renal
  TGI: > 100 µM
UACC-257 melanoma
  TGI: > 100 µM
A549 NSCLC
  TGI: > 100 µM
MCF7 breast
  TGI: > 100 µM
EKVX NSCLC
  TGI: > 100 µM
ACHN renal
  TGI: > 100 µM
NCI/ADR-RES ovarian
  TGI: > 100 µM
OVCAR-5 ovarian
  TGI: > 72.3 µM
SR leukemia
  TGI: > 85.6 µM
MDA-MB-231 breast
  TGI: > 100 µM
RXF 393 renal
  TGI: > 82.8 µM
MOLT-4 leukemia
  TGI: > 100 µM
786-0 renal
  TGI: > 71 µM

## CC1=CC(=O)CC(C)(C)C1(O)/C=C/C(C)=C/C(=O)O (stereo not given)
HCT-116 colon
  TGI: > 100 µM
K-562 leukemia
  TGI: > 100 µM
IGROV1 ovarian
  TGI: > 100 µM
SW-620 colon
  TGI: > 100 µM
HOP-92 NSCLC
  TGI: > 100 µM
HL-60(TB) leukemia
  TGI: > 100 µM
PC-3 prostate
  TGI: > 100 µM
SF-295 CNS
  TGI: > 100 µM
RPMI-8226 leukemia
  TGI: > 100 µM
MDA-N
  TGI: > 100 µM
SK-OV-3 ovarian
  TGI: > 100 µM
CCRF-CEM leukemia
  TGI: > 100 µM
SNB-75 CNS
  TGI: > 100 µM
HOP-62 NSCLC
  TGI: > 100 µM
NCI-H23 lung
  TGI: > 100 µM
SK-MEL-5 melanoma
  TGI: > 100 µM
HCT-15 colon
  TGI: > 100 µM
CAKI-1 renal
  TGI: > 100 µM
UACC-62 melanoma
  TGI: > 100 µM
KM12 colon
  TGI: > 100 µM
NCI-H226 lung
  TGI: > 100 µM
U251 CNS
  TGI: > 100 µM
SNB-19 CNS
  TGI: > 100 µM
M14 melanoma
  TGI: > 100 µM
SK-MEL-2 melanoma
  TGI: > 100 µM
HT29 colon
  TGI: > 100 µM
SF-539 CNS
  TGI: > 100 µM
MDA-MB-435
  TGI: > 100 µM
A498 renal
  TGI: > 100 µM
OVCAR-4 ovarian
  TGI: > 100 µM
NCI-H522 lung
  TGI: > 100 µM
UO-31 renal
  TGI: > 100 µM
SK-MEL-28 melanoma
  TGI: > 100 µM
HCC-2998 colon
  TGI: > 100 µM
SF-268 CNS
  TGI: > 100 µM
BT-549 breast
  TGI: > 100 µM
T-47D breast
  TGI: > 100 µM
MALME-3M melanoma
  TGI: > 100 µM
HS 578T breast
  TGI: > 100 µM
COLO 205 colon
  TGI: > 100 µM
SN12C renal
  TGI: > 100 µM
NCI-H460 lung
  TGI: > 100 µM
DU-145 prostate
  TGI: > 100 µM
LOX IMVI melanoma
  TGI: > 100 µM
OVCAR-8 ovarian
  TGI: > 100 µM
TK-10 renal
  TGI: > 100 µM
UACC-257 melanoma
  TGI: > 100 µM
A549 NSCLC
  TGI: > 100 µM
MCF7 breast
  TGI: > 100 µM
EKVX NSCLC
  TGI: > 100 µM
ACHN renal
  TGI: > 100 µM
NCI/ADR-RES ovarian
  TGI: > 100 µM
OVCAR-5 ovarian
  TGI: > 100 µM
SR leukemia
  TGI: > 100 µM
MDA-MB-231 breast
  TGI: > 100 µM
RXF 393 renal
  TGI: > 100 µM
OVCAR-3 ovarian
  TGI: > 100 µM
MOLT-4 leukemia
  TGI: > 100 µM
786-0 renal
  TGI: > 100 µM

## C/C(=C/c1ccccc1)CN(C(=O)/C=C\Sc1ccccc1)C(C)(C)C
HCT-116 colon
  TGI: > 100 µM
K-562 leukemia
  TGI: > 100 µM
IGROV1 ovarian
  TGI: > 100 µM
SW-620 colon
  TGI: > 100 µM
HOP-92 NSCLC
  TGI: > 71.6 µM
HL-60(TB) leukemia
  TGI: > 100 µM
PC-3 prostate
  TGI: > 100 µM
SF-295 CNS
  TGI: > 100 µM
RPMI-8226 leukemia
  TGI: > 100 µM
MDA-N
  TGI: > 100 µM
SK-OV-3 ovarian
  TGI: > 100 µM
CCRF-CEM leukemia
  TGI: > 100 µM
SNB-75 CNS
  TGI: > 100 µM
HOP-62 NSCLC
  TGI: > 100 µM
NCI-H23 lung
  TGI: > 100 µM
SK-MEL-5 melanoma
  TGI: > 100 µM
HCT-15 colon
  TGI: > 100 µM
CAKI-1 renal
  TGI: > 100 µM
UACC-62 melanoma
  TGI: > 100 µM
KM12 colon
  TGI: > 100 µM
NCI-H226 lung
  TGI: > 100 µM
U251 CNS
  TGI: > 100 µM
SNB-19 CNS
  TGI: > 100 µM
M14 melanoma
  TGI: > 100 µM
SK-MEL-2 melanoma
  TGI: > 100 µM
HT29 colon
  TGI: > 100 µM
SF-539 CNS
  TGI: > 100 µM
MDA-MB-435
  TGI: > 100 µM
A498 renal
  TGI: > 100 µM
OVCAR-4 ovarian
  TGI: > 100 µM
NCI-H522 lung
  TGI: > 46.4 µM
UO-31 renal
  TGI: > 100 µM
SK-MEL-28 melanoma
  TGI: > 100 µM
HCC-2998 colon
  TGI: > 100 µM
SF-268 CNS
  TGI: > 38.1 µM
BT-549 breast
  TGI: > 100 µM
T-47D breast
  TGI: > 100 µM
MALME-3M melanoma
  TGI: > 100 µM
HS 578T breast
  TGI: > 47.8 µM
COLO 205 colon
  TGI: > 100 µM
SN12C renal
  TGI: > 100 µM
NCI-H460 lung
  TGI: > 100 µM
DU-145 prostate
  TGI: > 100 µM
LOX IMVI melanoma
  TGI: > 100 µM
OVCAR-8 ovarian
  TGI: > 100 µM
TK-10 renal
  TGI: > 100 µM
UACC-257 melanoma
  TGI: > 100 µM
A549 NSCLC
  TGI: > 100 µM
MCF7 breast
  TGI: > 100 µM
EKVX NSCLC
  TGI: > 100 µM
ACHN renal
  TGI: > 100 µM
NCI/ADR-RES ovarian
  TGI: > 100 µM
OVCAR-5 ovarian
  TGI: > 100 µM
SR leukemia
  TGI: > 100 µM
MDA-MB-231 breast
  TGI: > 100 µM
RXF 393 renal
  TGI: > 100 µM
OVCAR-3 ovarian
  TGI: > 100 µM
MOLT-4 leukemia
  TGI: > 100 µM
786-0 renal
  TGI: > 100 µM

— PubChem BioAssay (NCI)
